Source: ChEMBL document CHEMBL1201861, “Genomics of Drug Sensitity in Cancer screening data, Wellcome Trust Sanger Institute”

Tests used:
Assay in all cases: cells
HCT-116 = type: functional, cell-based, Homo sapiens; details: Homo sapiens, HCT-116
Description: SANGER: Inhibition of human HCT-116 cell growth in a cell viability assay.

EM-2 = type: functional, cell-based; details: Homo sapiens;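 also: growth inhibition of EM-2 cells, read out with a cell viability assay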
Description: SANGER: Inhibition of human EM-2 cell growth in a cell viability assay.

LNCaP-Clone-FGC = type: functional, cell-based, Homo sapiens; details: Homo sapiens, LNCaP-Clone-FGC
Description: SANGER: Inhibition of human LNCaP-Clone-FGC cell growth in a cell viability assay.

RPMI-7951 = type: functional, cell-based, Homo sapiens; details: Homo sapiens, RPMI-7951
Description: SANGER: Inhibition of human RPMI-7951 cell growth in a cell viability assay.

DOHH-2 = type: functional, cell-based; details: Homo sapiens;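 also: growth inhibition of human DOHH-2 cells, read out with a cell viability assay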
Description: SANGER: Inhibition of human DOHH-2 cell growth in a cell viability assay.

HCC1419 = type: functional, cell-based, Homo sapiens; details: Homo sapiens, HCC1419;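 also: growth inhibition of human HCC1419 cells, read out as cell viability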
Description: SANGER: Inhibition of human HCC1419 cell growth in a cell viability assay.

ACHN = type: functional, cell-based, Homo sapiens; details: Homo sapiens, ACHN;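 also: cell viability read-out used to gauge how strongly growth of human ACHN cells is suppressed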
Description: SANGER: Inhibition of human ACHN cell growth in a cell viability assay.

A673 = type: functional, cell-based, Homo sapiens; details: Homo sapiens, A673;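 also: growth inhibition of human A673 cells, read out through a cell viability assay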
Description: SANGER: Inhibition of human A673 cell growth in a cell viability assay.

OCI-AML2 = type: functional, cell-based; details: Homo sapiens;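 also: growth inhibition of OCI-AML2 cells, read out with a cell viability assay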
Description: SANGER: Inhibition of human OCI-AML2 cell growth in a cell viability assay.

HT-3 = type: functional, cell-based, Homo sapiens; details: Homo sapiens, HT-3;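 also: growth inhibition measured with a cell viability readout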
Description: SANGER: Inhibition of human HT-3 cell growth in a cell viability assay.

NTERA-2-cl-D1 = type: functional, cell-based, Homo sapiens; details: Homo sapiens, NTERA-2-cl-D1;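 also: inhibition of cell growth, measured with a cell viability assay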
Description: SANGER: Inhibition of human NTERA-S-cl-D1 cell growth in a cell viability assay.

SF-539 = type: functional, cell-based, Homo sapiens; details: Homo sapiens, SF-539;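 also: Read-out is a cell viability assay, with IC50 reflecting inhibition of cell growth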
Description: SANGER: Inhibition of human SF539 cell growth in a cell viability assay.

CW-2 = type: functional, cell-based, Homo sapiens; details: Homo sapiens, CW-2;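 also: growth inhibition of CW-2 cells, read out by a cell viability assay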
Description: SANGER: Inhibition of human CW-2 cell growth in a cell viability assay.

CAL-54 = type: functional, cell-based, Homo sapiens; details: Homo sapiens, CAL-54;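 also: growth inhibition of CAL-54 cells, read out by a viability measurement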
Description: SANGER: Inhibition of human CAL-54 cell growth in a cell viability assay.

HEC-1 = type: functional, cell-based, Homo sapiens; details: Homo sapiens, HEC-1;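 also: growth inhibition of the cell line, read out with a cell viability assay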
Description: SANGER: Inhibition of human HEC-1 cell growth in a cell viability assay.

BT-20 = type: functional, cell-based, Homo sapiens; details: Homo sapiens, BT-20;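 also: cell viability assay measuring suppression of growth in human BT-20 cells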
Description: SANGER: Inhibition of human BT-20 cell growth in a cell viability assay.

KM12 = type: functional, cell-based, Homo sapiens; details: Homo sapiens, KM12;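 also: KM12 cell growth inhibition, read out with a cell viability assay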
Description: SANGER: Inhibition of human KM12 cell growth in a cell viability assay.

FaDu = type: functional, cell-based, Homo sapiens; details: Homo sapiens, FaDu;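 also: cell viability readout of growth inhibition in FaDu cells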
Description: SANGER: Inhibition of human FADU cell growth in a cell viability assay.

A204 = type: functional, cell-based, Homo sapiens; details: Homo sapiens, A204;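 also: growth inhibition of human A204 cells, read out with a cell viability assay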
Description: SANGER: Inhibition of human A204 cell growth in a cell viability assay.

HO-1-N-1 = type: functional, cell-based, Homo sapiens; details: Homo sapiens, HO-1-N-1;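 also: growth inhibition of human HO-1-N-1 cells, read out with a cell viability assay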
Description: SANGER: Inhibition of human HO-1-N-1 cell growth in a cell viability assay.

MFM-223 = type: functional, cell-based, Homo sapiens; details: Homo sapiens, MFM-223
Description: SANGER: Inhibition of human MFM-223 cell growth in a cell viability assay.

ASPC1 = type: functional, cell-based, Homo sapiens; details: Homo sapiens, ASPC1;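 also: growth inhibition of AsPC-1 cells, read out with a cell viability assay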
Description: SANGER: Inhibition of human AsPC-1 cell growth in a cell viability assay.

BFTC-909 = type: functional, cell-based, Homo sapiens; details: Homo sapiens, BFTC-909
Description: SANGER: Inhibition of human BFTC-909 cell growth in a cell viability assay.

CAS-1 = type: functional, cell-based, Homo sapiens; details: Homo sapiens, CAS-1;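 also: growth inhibition of CAS-1 cells, measured with a cell viability assay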
Description: SANGER: Inhibition of human CAS-1 cell growth in a cell viability assay.

MOLT-4 = type: functional, cell-based; details: Homo sapiens;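 also: growth inhibition of MOLT-4 cells, determined with a cell viability readout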
Description: SANGER: Inhibition of human MOLT-4 cell growth in a cell viability assay.

SK-NEP-1 = type: functional, cell-based; details: Homo sapiens;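 also: growth inhibition of human SK-NEP-1 cells, read out by a cell viability assay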
Description: SANGER: Inhibition of human SK-NEP-1 cell growth in a cell viability assay.

SK-MES-1 = type: functional, cell-based, Homo sapiens; details: Homo sapiens, SK-MES-1;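 also: growth inhibition of human SK-MES-1 cells, read out with a cell viability assay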
Description: SANGER: Inhibition of human SK-MES-1 cell growth in a cell viability assay.

no-10 = type: functional, cell-based, Homo sapiens; details: Homo sapiens;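 also: growth inhibition of no-10 cells, read out with a cell viability assay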
Description: SANGER: Inhibition of human no-10 cell growth in a cell viability assay.

SK-MEL-1 = type: functional, cell-based; details: Homo sapiens;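 also: growth inhibition of human SK-MEL-1 cells, read out by a cell viability assay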
Description: SANGER: Inhibition of human SK-MEL-1 cell growth in a cell viability assay.

C2BBe1 = type: functional, cell-based, Homo sapiens; details: Homo sapiens, C2BBe1;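 also: growth inhibition of C2BBe1 cells, read out through a viability assay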
Description: SANGER: Inhibition of human C2BBe1 cell growth in a cell viability assay.

HCC2218 = type: functional, cell-based; details: Homo sapiens;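 also: cell viability assay read-out, with IC50 given as the concentration that inhibits growth of the cell line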
Description: SANGER: Inhibition of human HCC2218 cell growth in a cell viability assay.

GT3TKB = type: functional, cell-based, Homo sapiens; details: Homo sapiens, GT3TKB;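 also: growth inhibition of the cell line, read out with a cell viability assay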
Description: SANGER: Inhibition of human GT3TKB cell growth in a cell viability assay.

D-336MG = type: functional, cell-based, Homo sapiens; details: Homo sapiens, D-336MG
Description: SANGER: Inhibition of human D-336MG cell growth in a cell viability assay.

SK-MEL-2 = type: functional, cell-based, Homo sapiens; details: Homo sapiens, SK-MEL-2;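 also: growth inhibition of human SK-MEL-2 cells measured with a cell viability assay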
Description: SANGER: Inhibition of human SK-MEL-2 cell growth in a cell viability assay.

SNU-5 = type: functional, cell-based; details: Homo sapiens;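 also: cell viability readout used to measure growth inhibition in human NCI-SNU-5 cells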
Description: SANGER: Inhibition of human NCI-SNU-5 cell growth in a cell viability assay.

HGC-27 = type: functional, cell-based, Homo sapiens; details: Homo sapiens, HGC-27;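 also: growth inhibition of human HGC-27 cells, read out in a cell viability assay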
Description: SANGER: Inhibition of human HGC-27 cell growth in a cell viability assay.

HuP-T3 = type: functional, cell-based, Homo sapiens; details: Homo sapiens, HuP-T3;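 also: HuP-T3 cell growth inhibition, read out with a cell viability assay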
Description: SANGER: Inhibition of human HuP-T3 cell growth in a cell viability assay.

Mo = type: functional, cell-based; details: Homo sapiens
Description: SANGER: Inhibition of human Mo-T cell growth in a cell viability assay.

NCI-H1693 = type: functional, cell-based, Homo sapiens; details: Homo sapiens, NCI-H1693;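 also: growth inhibition of the human cell line, read out with a cell viability assay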
Description: SANGER: Inhibition of human NCI-H1693 cell growth in a cell viability assay.

YAPC = type: functional, cell-based, Homo sapiens; details: Homo sapiens, YAPC;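 also: growth inhibition of YAPC cells, measured with a cell viability assay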
Description: SANGER: Inhibition of human YAPC cell growth in a cell viability assay.

MDA-MB-231 = type: functional, cell-based, Homo sapiens; details: Homo sapiens, MDA-MB-231
Description: SANGER: Inhibition of human MDA-MB-231 cell growth in a cell viability assay.

T98G = type: functional, cell-based, Homo sapiens; details: Homo sapiens, T98G;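 also: growth inhibition of T98G cells, read out by a cell viability assay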
Description: SANGER: Inhibition of human T98G cell growth in a cell viability assay.

DOK = type: functional, cell-based, Homo sapiens; details: Homo sapiens, DOK;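 also: cell viability assay read-out, values reflect inhibition of cell growth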
Description: SANGER: Inhibition of human DOK cell growth in a cell viability assay.

KGN = type: functional, cell-based, Homo sapiens; details: Homo sapiens, KGN;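 also: growth inhibition of KGN cells, read out with a cell viability assay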
Description: SANGER: Inhibition of human KGN cell growth in a cell viability assay.

VM-CUB-1 = type: functional, cell-based; details: Homo sapiens;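 also: cell viability assay measuring growth inhibition of the human VM-CUB-1 cell line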
Description: SANGER: Inhibition of human VM-CUB-1 cell growth in a cell viability assay.

NCI-H2087 = type: functional, cell-based, Homo sapiens; details: Homo sapiens, NCI-H2087;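 also: growth inhibition determined with a cell viability readout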
Description: SANGER: Inhibition of human NCI-H2087 cell growth in a cell viability assay.

EW-3 = type: functional, cell-based; details: Homo sapiens;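 also: cell viability assay read-out, IC50 reflects inhibition of growth of the EW-3 cells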
Description: SANGER: Inhibition of human EW-3 cell growth in a cell viability assay.

LS-123 = type: functional, cell-based, Homo sapiens; details: Homo sapiens, LS-123
Description: SANGER: Inhibition of human LS-123 cell growth in a cell viability assay.

G-402 = type: functional, cell-based, Homo sapiens; details: Homo sapiens, G-402
Description: SANGER: Inhibition of human G-402 cell growth in a cell viability assay.

8305C = type: functional, cell-based, Homo sapiens; details: Homo sapiens, 8305C
Description: SANGER: Inhibition of human 8305C cell growth in a cell viability assay.

LB831-BLC = type: functional, cell-based, Homo sapiens; details: Homo sapiens, LB831-BLC;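 also: growth inhibition of LB831-BLC cells, read out with a cell viability assay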
Description: SANGER: Inhibition of human LB831-BLC cell growth in a cell viability assay.

MC116 = type: functional, cell-based; details: Homo sapiens;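 also: growth inhibition of MC116 cells, read out with a cell viability assay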
Description: SANGER: Inhibition of human MC116 cell growth in a cell viability assay.

SMILES: C=CCNC1=C2C[C@@H](C)C[C@H](OC)[C@H](O)[C@@H](C)/C=C(\C)[C@H](OC(N)=O)[C@@H](OC)/C=C\C=C(/C)C(=O)NC(=CC1=O)C2=O [TANESPIMYCIN]
- IC50 (HCT-116): 266 nM
- IC50 (EM-2): > 1000 nM
- IC50 (LNCaP-Clone-FGC): 800 nM
- IC50 (RPMI-7951): 7.17 nM
- IC50 (DOHH-2): > 1000 nM
- IC50 (HCC1419): 146 nM
- IC50 (ACHN): 606 nM
- IC50 (A673): > 1000 nM
- IC50 (OCI-AML2): 654 nM
- IC50 (HT-3): 482 nM
- IC50 (NTERA-2-cl-D1): 328 nM
- IC50 (SF-539): 66.8 nM
- IC50 (CW-2): > 1000 nM
- IC50 (CAL-54): > 1000 nM
- IC50 (HEC-1): 65.9 nM
- IC50 (BT-20): > 1000 nM
- IC50 (KM12): 63.5 nM
- IC50 (FaDu): 2.09 nM
- IC50 (A204): 22.5 nM
- IC50 (HO-1-N-1): 40.2 nM
- IC50 (MFM-223): 264 nM
- IC50 (ASPC1): 152 nM
- IC50 (BFTC-909): 79.7 nM
- IC50 (CAS-1): > 1000 nM
- IC50 (MOLT-4): > 1000 nM
- IC50 (SK-NEP-1): > 1000 nM
- IC50 (SK-MES-1): 36.1 nM
- IC50 (no-10): > 1000 nM
- IC50 (SK-MEL-1): > 1000 nM
- IC50 (C2BBe1): 222 nM
- IC50 (HCC2218): 24.9 nM
- IC50 (GT3TKB): 59.4 nM
- IC50 (D-336MG): 33.1 nM
- IC50 (SK-MEL-2): 90.6 nM
- IC50 (SNU-5): 305 nM
- IC50 (HGC-27): 5.1 nM
- IC50 (HuP-T3): 401 nM
- IC50 (Mo): > 1000 nM
- IC50 (NCI-H1693): > 1000 nM
- IC50 (YAPC): 451 nM
- IC50 (MDA-MB-231): > 1000 nM
- IC50 (T98G): 41 nM
- IC50 (DOK): 49 nM
- IC50 (KGN): > 1000 nM
- IC50 (VM-CUB-1): 36.6 nM
- IC50 (NCI-H2087): 174 nM
- IC50 (EW-3): 127 nM
- IC50 (LS-123): > 1000 nM
- IC50 (G-402): 47.9 nM
- IC50 (8305C): 725 nM
- IC50 (LB831-BLC): 139 nM
- IC50 (MC116): > 1000 nM

SMILES: Nc1ccn([C@@H]2O[C@H](CO)[C@@H](O)[C@@H]2O)c(=O)n1 [CYTARABINE]
- IC50 (HCT-116): 245 nM
- IC50 (EM-2): 211 nM
- IC50 (LNCaP-Clone-FGC): 1310 nM
- IC50 (RPMI-7951): 340 nM
- IC50 (DOHH-2): 1380 nM
- IC50 (HCC1419): > 2000 nM
- IC50 (ACHN): 370 nM
- IC50 (A673): 224 nM
- IC50 (OCI-AML2): 545 nM
- IC50 (HT-3): 1380 nM
- IC50 (NTERA-2-cl-D1): 159 nM
- IC50 (SF-539): 717 nM
- IC50 (CW-2): 613 nM
- IC50 (CAL-54): 940 nM
- IC50 (HEC-1): 1790 nM
- IC50 (BT-20): > 2000 nM
- IC50 (KM12): > 2000 nM
- IC50 (FaDu): > 2000 nM
- IC50 (A204): 311 nM
- IC50 (HO-1-N-1): 691 nM
- IC50 (MFM-223): > 2000 nM
- IC50 (ASPC1): 1390 nM
- IC50 (BFTC-909): 357 nM
- IC50 (CAS-1): > 2000 nM
- IC50 (MOLT-4): 89.7 nM
- IC50 (SK-NEP-1): > 2000 nM
- IC50 (SK-MES-1): 807 nM
- IC50 (no-10): > 2000 nM
- IC50 (SK-MEL-1): > 2000 nM
- IC50 (C2BBe1): 166 nM
- IC50 (HCC2218): > 2000 nM
- IC50 (GT3TKB): 341 nM
- IC50 (D-336MG): 805 nM
- IC50 (SK-MEL-2): > 2000 nM
- IC50 (SNU-5): > 2000 nM
- IC50 (HGC-27): 455 nM
- IC50 (HuP-T3): 856 nM
- IC50 (Mo): > 2000 nM
- IC50 (NCI-H1693): > 2000 nM
- IC50 (YAPC): > 2000 nM
- IC50 (MDA-MB-231): > 2000 nM
- IC50 (T98G): 1720 nM
- IC50 (DOK): 904 nM
- IC50 (KGN): > 2000 nM
- IC50 (VM-CUB-1): 533 nM
- IC50 (NCI-H2087): > 2000 nM
- IC50 (EW-3): 830 nM
- IC50 (LS-123): > 2000 nM
- IC50 (G-402): 650 nM
- IC50 (8305C): > 2000 nM
- IC50 (LB831-BLC): > 2000 nM
- IC50 (MC116): 1280 nM
